Source: the supplement of paper PMC10307832

Experiments:
Experiment in all cases: relative viability (nuclei count vs DMSO), 5 days (fraction); higher = more cells survive
NCI-H650 = tested on: NCI-H650
Method in brief: (§1)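 Medians of duplicate plates are given as relative viability. That measure is the nuclei count in treated wells divided by the count in vehicle wells. Counts were taken on 4× images of lung cancer cell lines in 1536-well plates, 5 days after pin-tool dosing the day after seeding with one drug alone or a fixed anchor-drug dose plus five library-drug doses (not always all listed) in √10 steps.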

NCI-H23 = tested on: NCI-H23
Method in brief: as §1

NCI-H1650 = tested on: NCI-H1650
Method in brief: as §1

LCLC-103H = tested on: LCLC-103H
Method in brief: as §1

NCI-H727 = tested on: NCI-H727
Method in brief: as §1

PC-3 [JPC-3] = tested on: PC-3 [JPC-3]
Method in brief: as §1

LU99A = tested on: LU99A
Method in brief: as §1

NCI-H1563 = tested on: NCI-H1563
Method in brief: as §1

HCC-44 = tested on: HCC-44
Method in brief: as §1

NCI-H460 = tested on: NCI-H460
Method in brief: as §1

201T = tested on: 201T
Method in brief: as §1

H3255 = tested on: H3255
Method in brief: as §1

NCI-H1944 = tested on: NCI-H1944
Method in brief: as §1

NCI-H2347 = tested on: NCI-H2347
Method in brief: as §1

PC-14 = tested on: PC-14
Method in brief: as §1

A-427 = tested on: A-427
Method in brief: as §1

LK-2 = tested on: LK-2
Method in brief: as §1

SW 1573 = tested on: SW 1573
Method in brief: as §1

NCI-H838 = tested on: NCI-H838
Method in brief: as §1

COR-L23 = tested on: COR-L23
Method in brief: as §1

LCLC-97TM1 = tested on: LCLC-97TM1
Method in brief: as §1

O=C(O)c1ccc(-c2c[nH]c3ncc(-c4ccccc4)cc23)cc1C1CCCC1 + C[C@@H](Oc1cc(-c2cnn(C3CCNCC3)c2)cnc1N)c1c(Cl)ccc(F)c1Cl [Crizotinib] (partner 1 µM)
relative viability (NCI-H650; first compound 0.04 µM): 0.762 | relative viability (NCI-H650; first compound 0.1265 µM): 0.844 | relative viability (NCI-H650; first compound 0.4 µM): 0.561 | relative viability (NCI-H650; first compound 1.265 µM): 0.465 | relative viability (NCI-H23; first compound 0.04 µM): 0.689 | relative viability (NCI-H23; first compound 0.1265 µM): 0.598 | relative viability (NCI-H23; first compound 0.4 µM): 0.482 | relative viability (NCI-H23; first compound 1.265 µM): 0.484 | relative viability (NCI-H1650; first compound 0.04 µM): 1.02 | relative viability (NCI-H1650; first compound 0.1265 µM): 0.996 | relative viability (NCI-H1650; first compound 0.4 µM): 0.917 | relative viability (NCI-H1650; first compound 1.265 µM): 0.743 | relative viability (LCLC-103H; first compound 0.04 µM): 0.997 | relative viability (LCLC-103H; first compound 0.1265 µM): 1.05 | relative viability (LCLC-103H; first compound 0.4 µM): 1.03 | relative viability (LCLC-103H; first compound 1.265 µM): 1.04 | relative viability (NCI-H727; first compound 0.04 µM): 0.971 | relative viability (NCI-H727; first compound 0.1265 µM): 0.894 | relative viability (NCI-H727; first compound 0.4 µM): 0.738 | relative viability (NCI-H727; first compound 1.265 µM): 0.805 | relative viability (PC-3 [JPC-3]; first compound 0.04 µM): 0.963 | relative viability (PC-3 [JPC-3]; first compound 0.1265 µM): 1.03 | relative viability (PC-3 [JPC-3]; first compound 0.4 µM): 0.968 | relative viability (PC-3 [JPC-3]; first compound 1.265 µM): 0.832 | relative viability (LU99A; first compound 0.04 µM): 0.539 | relative viability (LU99A; first compound 0.1265 µM): 0.678 | relative viability (LU99A; first compound 0.4 µM): 0.503 | relative viability (LU99A; first compound 1.265 µM): 0.486 | relative viability (NCI-H1563; first compound 0.04 µM): 0.787 | relative viability (NCI-H1563; first compound 0.1265 µM): 0.91 | relative viability (NCI-H1563; first compound 0.4 µM): 0.851 | relative viability (NCI-H1563; first compound 1.265 µM): 0.875 | relative viability (HCC-44; first compound 0.04 µM): 0.764 | relative viability (HCC-44; first compound 0.1265 µM): 0.823 | relative viability (HCC-44; first compound 0.4 µM): 0.812 | relative viability (HCC-44; first compound 1.265 µM): 0.577 | relative viability (NCI-H460; first compound 0.04 µM): 0.872 | relative viability (NCI-H460; first compound 0.1265 µM): 1.06 | relative viability (NCI-H460; first compound 0.4 µM): 0.83 | relative viability (NCI-H460; first compound 1.265 µM): 0.864 | relative viability (201T; first compound 0.04 µM): 1.06 | relative viability (201T; first compound 0.1265 µM): 1.04 | relative viability (201T; first compound 0.4 µM): 0.941 | relative viability (201T; first compound 1.265 µM): 0.979 | relative viability (H3255; first compound 0.04 µM): 0.953 | relative viability (H3255; first compound 0.1265 µM): 0.851 | relative viability (H3255; first compound 0.4 µM): 0.825 | relative viability (H3255; first compound 1.265 µM): 0.9 | relative viability (NCI-H1944; first compound 0.04 µM): 1.03 | relative viability (NCI-H1944; first compound 0.1265 µM): 1.14 | relative viability (NCI-H1944; first compound 0.4 µM): 1.08 | relative viability (NCI-H1944; first compound 1.265 µM): 1.01 | relative viability (NCI-H2347; first compound 0.04 µM): 0.621 | relative viability (NCI-H2347; first compound 0.1265 µM): 0.707 | relative viability (NCI-H2347; first compound 0.4 µM): 0.642 | relative viability (NCI-H2347; first compound 1.265 µM): 0.568 | relative viability (PC-14; first compound 0.04 µM): 0.931 | relative viability (PC-14; first compound 0.1265 µM): 0.849 | relative viability (PC-14; first compound 0.4 µM): 0.921 | relative viability (PC-14; first compound 1.265 µM): 0.672 | relative viability (A-427; first compound 0.04 µM): 0.941 | relative viability (A-427; first compound 0.1265 µM): 0.845 | relative viability (A-427; first compound 0.4 µM): 0.86 | relative viability (A-427; first compound 1.265 µM): 0.852 | relative viability (LK-2; first compound 0.04 µM): 0.31 | relative viability (LK-2; first compound 0.1265 µM): 0.202 | relative viability (LK-2; first compound 0.4 µM): 0.291 | relative viability (LK-2; first compound 1.265 µM): 0.198 | relative viability (SW 1573; first compound 0.04 µM): 0.769 | relative viability (SW 1573; first compound 0.1265 µM): 0.892 | relative viability (SW 1573; first compound 0.4 µM): 0.862 | relative viability (SW 1573; first compound 1.265 µM): 0.925 | relative viability (NCI-H838; first compound 0.04 µM): 0.794 | relative viability (NCI-H838; first compound 0.1265 µM): 0.952 | relative viability (NCI-H838; first compound 0.4 µM): 0.848 | relative viability (NCI-H838; first compound 1.265 µM): 0.88 | relative viability (COR-L23; first compound 0.04 µM): 0.584 | relative viability (COR-L23; first compound 0.1265 µM): 0.508 | relative viability (COR-L23; first compound 0.4 µM): 0.681 | relative viability (COR-L23; first compound 1.265 µM): 0.476 | relative viability (LCLC-97TM1; first compound 0.04 µM): 0.376 | relative viability (LCLC-97TM1; first compound 0.1265 µM): 0.329 | relative viability (LCLC-97TM1; first compound 0.4 µM): 0.234 | relative viability (LCLC-97TM1; first compound 1.265 µM): 0.326
